Results on one compound are retold here after patent US10501472B2, “Method to isolate inoscavin a from Fulviformes fastuosus and medicinal preparation thereof to treat rhabdomyosarcoma cancer conditions” (University of Colombo, priority 2015, dated 2019).

“Also recorded” adds a separate entry of the source. Read-outs that look alike come from different tables or passages of the source.

The subject of assay [1] is RD cell line (human rhabdomyosarcoma). In words: MTT assay, antiproliferative activity against RD cell line. The conditions noted are these: for IC50: Homo sapiens, RD, MTT, 24 hour treatment. The assay is classed as cell-based. The procedure:
(§1) RD and CC-1 cell lines were cultured in DMEM supplemented with 10% heat inactivated fetal bovine serum (FBS), 3% glutamine, sodium bicarbonate and antibiotic (penicillin/streptomycin). The cells were incubated at 37° C. in a humidified CO2 incubator.
Antiproliferative activities of inoscavin A against RD and CC-1 cells were determined using MTT (3, 4, 5-(dimethyl-thiazol-2-yl) 2-5-diphenyl tetrazolium bromide) assay. Metabolically active cells reduce MTT in to purple colored formazan crystals. Adherent cell lines were transferred with 0.12% trypsin and 0.5% EDTA and cells (2×10^5 cells/well) were seeded in 24-well plates and incubated overnight with 1 mL of the DMEM medium described above. The stock solution of inoscavin A was prepared in DMSO at a concentration of 1 mg/ml and subsequently diluted up to 1000 ng/ml in order to prepare the working standards. The resulting monolayers of RD cells and CC-1 cells (70% confluence) were treated with different concentrations of the test solution and incubated for 24 hours at 37° C.
In all experiments, cycloheximide (5 mM, 50 μl) was used as the positive control and negative control contained 0.25% DMSO in growth media. The culture medium was replaced with fresh medium (1 ml) after 24 hours and MTT (5 mg/ml; 100 μl) was added to each well. The cells were incubated at 37° C. for 3 hours and the medium was aspirated carefully. The remaining formazan crystals were solubilized with 750 μl of 0.05 M HCl (in 2-propanol) and absorbance was measured at 570 nm. Percentage cell viability was determined using the equation below.
The net absorbance from the wells of the untreated cells (negative control) was taken as the 100% viability. IC50 of the test solution against RD cells was determined by regression analysis of the corresponding dose response curve. CC50 of the test solution against CC-1 cell line was also calculated using the regression analysis. Safety of the compound for normal cells was determined in terms of selectivity index (SI) by calculating the ratio of CC50/IC50. SI value>2 is considered as safe.
A general note: Formazan colour is commonly taken as a measure of viable cells.

Assay [2] has as its system RD cells. In words: Ethidium bromide/acridine orange staining for apoptosis. The conditions noted are these: 24 hours. The assay is classed as cell-based, human. The procedure:
Ethidium bromide and acridine orange staining were performed to investigate the apoptosis induced by inoscavin A against RD cells. Ethidium bromide (EB) is only occupied by cells with damaged cell membranes. Acridine orange (AO) permeates via both live and dead cells. Cells were seeded in chamber slides and the confluent layer was treated with the test solution containing inoscavin A at different concentrations for 24 hours at 37° C. as described previously. The adherent cells were washed with 200 μL of PBS and 2 μL of the dye mixture containing ethidium bromide ([…]) and acridine orange ([…]) was placed on each well of the chamber slide. Chamber slides were examined immediately under the fluorescence microscope. Images were photographed using a Nikon D 700 camera connected to the microscope.

Assay [3] has as its system CC-1 cell line (normal epithelial cells). In words: MTT assay, cytotoxicity against normal CC-1 cell line. The assay is classed as cell-based, mice. The conditions noted are these: CC50 in CC-1 cells / IC50 in RD cells. The procedure:
as §1
Antiproliferative activities of inoscavin A against RD and CC-1 cells were determined using MTT (3, 4, 5-(dimethyl-thiazol-2-yl) 2-5-diphenyl tetrazolium bromide) assay. Metabolically active cells reduce MTT in to purple colored formazan crystals. Adherent cell lines were transferred with 0.12% trypsin and 0.5% EDTA and cells (2×10^5 cells/well) were seeded in 24-well plates and incubated overnight with 1 mL of the DMEM medium described above. […]
In all experiments, cycloheximide (5 mM, 50 μl) was used as the positive control and negative control contained 0.25% DMSO in growth media. […] The remaining formazan crystals were solubilized with 750 μl of 0.05 M HCl (in 2-propanol) and absorbance was measured at 570 nm. Percentage cell viability was determined using the equation below.
The net absorbance from the wells of the untreated cells (negative control) was taken as the 100% viability. IC50 of the test solution against RD cells was determined by regression analysis of the corresponding dose response curve. CC50 of the test solution against CC-1 cell line was also calculated using the regression analysis. […]

In assay [4] the test system is RD cells. In words: Microscopic examination of morphological changes of treated cells. The assay is classed as cell-based, human. The following applies: highest concentration 50 ng/mL, 24 hours. The procedure: The morphological changes of RD cells and CC-1 cells after the treatment with different concentrations of the test solution over 24 hours were detected by microscopic examination of cells. Morphological changes were compared with the negative and positive controls under fluorescence microscope.

Regarding `CC1=CC(=O)C2(O1)c1c(cc(/C=C/c3ccc(O)c(O)c3)oc1=O)OC2c1ccc(O)c(O)c1` (stereo not shown) [inoscavin A, 2-(3,4-dihydroxyphenyl)-6-[(E)-2-(3,4-dihydroxyphenyl)ethenyl]-5′-methylspiro[2H-furo[3,2-c]pyran-3,2′-furan]-3′,4-dione], the IC50 (commonly the concentration at which inhibition is half-maximal) was found to be 28 nM in assay [1] (mean of three independent sample preparations, read-out: IC50 against RD cells) and 0.0128 µg/mL in assay [1] (read-out: IC50 against RD cell line). Also, the “maximum inhibition of cell growth” value in assay [1] (RD cells, concentrations over 60 ng/mL to 100 ng/mL) was 75%. The “antiproliferative activity relative to mangiferin” value in assay [1] (RD cells, inoscavin A versus mangiferin) was “approximately 2500 times”. Further, in the assay on RD cells [2], the “apoptosis induction (AO/EB staining)” value was “confirmed the apoptosis induced by inoscavin A; also recorded: mediated through apoptosis”. For the same compound, in assay [3], the “selectivity index (SI), ratio of CC50/IC50” value was determined as 6185.18. Besides, the “morphological changes of RD cells” value in the assay on RD cells [4] is “detached and round shape dead cells”.
